Measured values from patent US11964988B2, “Fused heterocyclic compounds as RET kinase inhibitors” (ARRAY BIOPHARMA INC., priority 2018, dated 2024).
Positions count from the first letter of the chain named.

Columns and labels:
G810S mutant RET kinase = G810S mutant RET kinase (Homo sapiens, UniProt P07949, G810S); assay: biochemical;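 further: HTRF KinEASE-TK kinase assay with recombinant enzyme, 1 h at 22 °C, dual-wavelength ratiometric read-out, percent of control (DMSO-only = 100, pre-quenched reaction = 0)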
Method: (§2) The potency of compounds inhibiting several different RET kinase forms (Wild Type, V804M, G810R, & G810S) were determined using CisBio's HTRF® KinEASE™-TK assay technology. […] After a 1 hour incubation at 22° C., the extent of reaction was determined using a PerkinElmer EnVision multimode plate reader via HTRF dual wavelength detection, and the percent of control (POC) was calculated using a ratiometric emission factor. One hundred POC was determined using DMSO only samples (no compound present), and 0 POC was determined using pre-quenched control reactions.
The potency of a compound inhibiting G810R or G810S mutant RET kinase was determined using CisBio's HTRF® KinEASE™-TK assay technology. The assays contained G810R or G810S mutant RET produced at Array Biopharma, Inc. (1 nM enzyme). […] After a 1-h incubation at 22° C., the extent of reaction was determined using a PerkinElmer EnVision multimode plate reader via HTRF dual wavelength detection, and the percent of control (POC) was calculated using a ratiometric emission factor. One hundred POC was determined using no test compounds, and 0 POC was determined using pre-quenched control reactions.

RET kinase Wild Type = RET kinase Wild Type (Homo sapiens, UniProt P07949); assay: biochemical;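 further: HTRF kinase activity assay on RET enzyme, 1 h reaction at 22 °C, dual-wavelength readout as percent of control, DMSO-only wells as 100%, pre-quenched reactions as 0%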
RET kinase V804M = RET kinase V804M (Homo sapiens, UniProt P07949, V804M); assay: RET Enzyme Assay (CisBio HTRF KinEASE-TK), V804M; type: biochemical; conditions: read-out: RET V804M Enz FRET IC50
Method: as §2

[1] = target: T1, HEK-293 cells expressing a G810R mutant RET Kif5b-RET fusion protein (Homo sapiens, UniProt P07949, G810R); assay: RET G810R Mutant Cell Assay (phospho-RET Tyr1062); type: cell-based; conditions: HEK-293 Kif5b-RET G810R, 1 hour incubation, phospho-RET normalized to GAPDH
T1 construct: KIF5B (N-terminal portion incl. coiled-coil); expressed in transfected cells; host or cells: HEK-293; the other entry of the earlier key: KIF5B (P33176, Kinesin-1 heavy chain)
T1 sequence (P07949 713-1063 G810R limits assumed): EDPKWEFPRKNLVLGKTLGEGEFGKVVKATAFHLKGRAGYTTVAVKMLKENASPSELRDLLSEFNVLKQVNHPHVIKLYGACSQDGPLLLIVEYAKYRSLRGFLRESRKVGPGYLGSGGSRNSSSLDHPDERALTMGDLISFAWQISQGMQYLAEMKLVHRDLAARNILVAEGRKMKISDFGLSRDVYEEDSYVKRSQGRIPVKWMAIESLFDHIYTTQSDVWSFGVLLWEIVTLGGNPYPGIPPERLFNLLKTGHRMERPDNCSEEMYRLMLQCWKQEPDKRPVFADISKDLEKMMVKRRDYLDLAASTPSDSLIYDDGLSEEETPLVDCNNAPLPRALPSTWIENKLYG
Procedure, shortened: (§1)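 Engineered HEK-293 cells were treated 1 h with compound in DMEM, 0.5% DMSO final, then fixed, permeabilized and immunostained for phospho-RET Tyr1062 and GAPDH. In-cell fluorescence pRET signal was normalized to GAPDH; IC50 taken from a 4-parameter logistic fit of percent of control at 50 POC.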

G810R mutant RET kinase = G810R mutant RET kinase (Homo sapiens, UniProt P07949, G810R); assay: biochemical;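 further: HTRF KinEASE-TK enzymatic assay with 1 nM recombinant RET G810R, 1 h at 22 °C, dual-wavelength ratiometric readout, 100% control without compound, 0% from pre-quenched reactions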
[2] = target: T2, HEK-293 cells expressing a G810S mutant RET Kif5b-RET fusion protein (Homo sapiens, UniProt P07949, G810S); assay: RET G810S Mutant Cell Assay (phospho-RET Tyr1062); type: cell-based; conditions: HEK-293 Kif5b-RET G810S, 1 hour incubation, phospho-RET normalized to GAPDH
T2 construct: KIF5B (N-terminal portion incl. coiled-coil); expressed in transfected cells; host or cells: HEK-293
T2 sequence (P07949 713-1063 G810S limits assumed): T1 sequence (P07949 713-1063 G810R limits assumed) with R98S
Procedure, shortened: as §1

[3] = target: T3, HEK-293 cells expressing a Kif5b-RET fusion protein (Homo sapiens, UniProt P07949); assay: RET Cell Assay (phospho-RET Tyr1062); type: cell-based; conditions: HEK-293 Kif5b-RET, 1 hour incubation, phospho-RET normalized to GAPDH; read-out: KIF5B-RET pTYR1062 Cell IC50
T3 construct: KIF5B (N-terminal portion incl. coiled-coil); expressed in transfected cells; host or cells: HEK-293; the other entry of the earlier key: KIF5B (P33176, Kinesin-1 heavy chain)
T3 sequence (P07949 713-1063 limits assumed): T1 sequence (P07949 713-1063 G810R limits assumed) with R98G
Procedure, shortened: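 Kif5b-RET HEK-293 cells treated 1 hour with compound in DMEM (0.5% DMSO final), then fixed and immunostained for phospho-RET Tyr1062, normalized to GAPDH by infrared fluorescence. IC50 where the 4-parameter logistic fit of POC crosses 50.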

Sequence of G810S mutant RET kinase (P07949 29-1114 G810S): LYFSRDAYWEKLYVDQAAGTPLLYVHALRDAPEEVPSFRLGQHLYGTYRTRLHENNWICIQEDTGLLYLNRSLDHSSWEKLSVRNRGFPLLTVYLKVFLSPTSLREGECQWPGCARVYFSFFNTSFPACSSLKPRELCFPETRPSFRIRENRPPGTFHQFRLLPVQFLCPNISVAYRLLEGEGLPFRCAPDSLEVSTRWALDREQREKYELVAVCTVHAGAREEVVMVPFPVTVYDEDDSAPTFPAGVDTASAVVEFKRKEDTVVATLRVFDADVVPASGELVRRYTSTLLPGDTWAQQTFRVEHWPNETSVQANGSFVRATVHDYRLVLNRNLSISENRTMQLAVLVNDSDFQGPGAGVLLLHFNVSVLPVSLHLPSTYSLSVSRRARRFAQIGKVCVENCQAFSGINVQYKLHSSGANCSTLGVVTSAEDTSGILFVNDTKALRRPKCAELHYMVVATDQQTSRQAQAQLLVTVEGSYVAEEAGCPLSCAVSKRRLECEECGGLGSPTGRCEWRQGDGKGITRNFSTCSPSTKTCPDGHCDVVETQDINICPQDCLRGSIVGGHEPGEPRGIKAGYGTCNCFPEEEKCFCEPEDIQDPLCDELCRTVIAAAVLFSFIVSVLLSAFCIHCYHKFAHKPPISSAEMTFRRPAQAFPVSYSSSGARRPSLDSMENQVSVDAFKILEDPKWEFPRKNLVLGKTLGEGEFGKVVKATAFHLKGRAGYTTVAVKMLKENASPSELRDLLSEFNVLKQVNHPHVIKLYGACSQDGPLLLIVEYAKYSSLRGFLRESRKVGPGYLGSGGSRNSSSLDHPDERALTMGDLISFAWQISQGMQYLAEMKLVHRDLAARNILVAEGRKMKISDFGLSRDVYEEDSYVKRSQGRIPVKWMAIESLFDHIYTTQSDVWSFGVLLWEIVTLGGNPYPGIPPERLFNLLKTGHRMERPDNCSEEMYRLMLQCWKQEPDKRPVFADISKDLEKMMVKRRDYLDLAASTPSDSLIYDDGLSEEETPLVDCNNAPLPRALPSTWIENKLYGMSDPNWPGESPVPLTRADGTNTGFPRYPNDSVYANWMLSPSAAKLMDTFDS
Sequence of RET kinase Wild Type (P07949 29-1114): as the sequence (P07949 29-1114 G810S) above, with S782G counted along it
Sequence of RET kinase V804M (P07949 29-1114 V804M): as the sequence (P07949 29-1114 G810S) above, with V776M, S782G counted along it
Sequence of G810R mutant RET kinase (P07949 29-1114 G810R): as the sequence (P07949 29-1114 G810S) above, with S782R counted along it

| IC50 (G810S mutant RET kinase) [µM] | IC50 (RET kinase Wild Type) [µM] | IC50 (RET kinase V804M) [µM] | IC50 [1] [µM] | IC50 (G810R mutant RET kinase) [µM] | IC50 [2] [µM] | IC50 [3] [µM] | Structure (SMILES) |
| --- | --- | --- | --- | --- | --- | --- | --- |
| 0.029 | 0.008 | 0.021 | 0.046 | 0.031 | 0.04 | 0.01 | CC(C)n1c2c(c3c(N)ncnc31)-c1noc(C3CC3)c1[C@H](O)CC2 (single isomer, unassigned) [Example 55] |
| 0.052 | 0.019 | 5.49 | 0.076 | 0.094 | 0.039 | 0.011 | Cc1ccc2c(c1)cc1n2C(=O)NCc2c-1c1c(N)ncnc1n2C(C)C [Example 81, 1-amino-5-isopropyl-12-methyl-6,7-dihydropyrimido[5″,4″:4′,5′]pyrrolo[2′,3′: 5,6][1,3]diazepino[1,7-a]indol-8(5H)-one] |
| 0.04 | 0.021 | 0.098 | 0.157 | 0.045 | 0.101 | 0.029 | CC1Cc2c(c3c(N)ncnc3n2C(C)C)-c2noc(C3CC3)c2C1=O (stereo not shown) [Example 60, 11-amino-3-cyclopropyl-7-isopropyl-5-methyl-6,7-dihydroisoxazolo[4″,3″:6′,7′]cyclohepta[1′,2′:4,5]pyrrolo[2,3-d]pyrimidin-4(5H)-one] |
| 0.009 | 0.006 | 0.03 | 0.029 | 0.015 | 0.026 | 0.005 | Nc1ncnc2c1c1c(n2C(CF)CF)CC[C@H](O)c2c-1noc2C1CC1 (single isomer, unassigned) [Example 126] |
| 0.058 | 0.031 | 0.136 | 0.281 | 0.089 | 0.101 | 0.033 | CC1Cc2c(c3c(N)ncnc3n2C(C)C)-c2noc(C3CC3)c2C1O (stereo not shown) [Example 61, 11-amino-3-cyclopropyl-7-isopropyl-5-methyl-4,5,6,7-tetrahydroisoxazolo[4″,3″:6′,7′]cyclohepta[1′,2′:4,5]pyrrolo[2,3-d]pyrimidin-4-ol] |
| 0.023 | 0.006 | 0.021 | 0.057 | 0.028 | 0.052 | 0.009 | Nc1ncnc2c1c1c(n2C(CF)CF)CC[C@@H](O)c2c-1noc2C1CC1 (single isomer, unassigned) [Example 127] |
| 0.025 | 0.008 | 0.026 | 0.071 | 0.027 | 0.037 | 0.012 | CC(C)n1c2c(c3c(N)ncnc31)-c1noc(C3CC3)c1C(O)CC2 (racemic) [Example 29, 11-amino-3-cyclopropyl-7-isopropyl-4,5,6,7-tetrahydroisoxazolo[4″,3″:6′,7′]cyclohepta[1′,2′:4,5]pyrrolo[2,3-d]pyrimidin-4-ol] |
| 0.297 | 0.062 | 6.26 | 0.053 | 0.288 | 0.044 | 0.05 | CC(C)n1c2c(c3c(N)ncnc31)-c1cc3ccc(C(=O)Nc4ccn(CCN5CCOCC5)n4)cc3n1CCC2 [Example 88, 1-amino-5-isopropyl-N-(1-(2-morpholinoethyl)-1H-pyrazol-3-yl)-5,6,7,8-tetrahydropyrimido[5″,4″:4′,5′]pyrrolo[3′,2′: 3,4]azepino[1,2-a]indole-11-carboxamide] |
| 0.054 | 0.013 | 0.041 | 0.103 | 0.07 | 0.092 | 0.022 | CC(C)n1c2c(c3c(N)ncnc31)-c1noc(C3CC3)c1[C@@H](O)CC2 (single isomer, unassigned) [Example 54] |
| 0.074 | 0.034 | 0.138 | 0.349 | 0.096 | 0.192 | 0.052 | CC(C)n1c2c(c3c(N)ncnc31)-c1noc(C3CC3)c1[C@@H](O)[C@H](C)C2 (relative stereo) [Example 62, (Trans)-11-amino-3-cyclopropyl-7-isopropyl-5-methyl-4,5,6,7-tetrahydroisoxazolo[4″,3″:6′,7′]cyclohepta[1′,2′:4,5]pyrrolo[2,3-d]pyrimidin-4-ol] |
| 0.076 | 0.039 | 0.182 | 0.119 | 0.169 | 0.09 | 0.047 | CC(C)n1c2c(c3c(N)ncnc31)-c1noc(C3CC3)c1[C@@H](O)[C@H](C)C2 (single isomer, unassigned) [Example 64] |
| 0.159 | 0.023 | 0.066 | 0.186 | 0.064 | 0.181 | 0.049 | CO[C@@H]1CCc2c(c3c(N)ncnc3n2C(C)C)-c2noc(C3CC3)c21 (single isomer, unassigned) [Example 58] |
| 0.075 | 0.131 | 0.099 | 0.206 | 0.08 | 0.108 | 0.125 | Nc1ncnc2c1c1c(n2-c2ccccc2)CCC(O)c2c-1noc2C1CC1 (stereo not shown) [Example 118, 11-Amino-3-cyclopropyl-7-phenyl-4,5,6,7-tetrahydroisoxazolo[4″,3″:6′,7′]cyclohepta[1′,2′:4,5]pyrrolo[2,3-d]pyrimidin-4-ol 2,2,2-trifluoroacetate] |
| 2.63 | 0.512 |  | 16.2 | 3.09 | 6.35 | 3.96 | CC(C)n1c2c(c3c(N)ncnc31)-c1cc3ccc(C(=O)NC4CC4)cc3n1C(=O)NC2 [Example 72, 1-amino-N-cyclopropyl-5-isopropyl-8-oxo-5,6,7,8-tetrahydropyrimido[5″,4″:4′,5′]pyrrolo[2′,3′:5,6][1,3]diazepino[1,7-a]indole-11-carboxamide] |
| 0.805 | 0.135 |  | 0.075 | 1.42 | 0.062 | 0.043 | CC(C)n1c2c(c3c(N)ncnc31)-c1cc3ccc(C(=O)Nc4ccn(CCC(F)(F)F)n4)cc3n1CCC2 [Example 101, 1-amino-5-isopropyl-N-(1-(3,3,3-trifluoropropyl)-1H-pyrazol-3-yl)-5,6,7,8-tetrahydropyrimido[5″,4″:4′,5′]pyrrolo[3′,2′: 3,4]azepino[1,2-a]indole-11-carboxamide] |
|  | 0.009 | 0.044 | 0.087 | 0.031 | 0.083 | 0.028 | CC(C)n1c2c(c3c(N)ncnc31)-c1noc(C3CC3)c1S(=O)(=O)NC2 [Example 21, 11-amino-3-cyclopropyl-7-isopropyl-6,7-dihydro-5H-isoxazolo[3,4-f]pyrimido[5′,4′:4,5]pyrrolo[2,3-d][1,2]thiazepine 4,4-dioxide 2,2,2-trifluoroacetate] |
